# Results from patent US11697648B2, “Fused pyrimidine pyridinone compounds as JAK inhibitors” (THERAVANCE BIOPHARMA R&D IP, LLC, priority 2019, dated 2023).
# Assays:
# JAK1 = JAK1 (Homo sapiens (Human), UniProt P23458); assay: Biochemical JAK1 kinase assay (LanthaScreen)
# Method in brief: (§1)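 GST-JAK + GFP-STAT1 peptide, HEPES pH 7.5/MgCl2/EGTA/Brij-35 buffer; cpd preincubation 1 h RT; ATP start, 1 h RT; stop with 10 mM EDTA + 2 nM Tb-anti-pSTAT1; TR-FRET 520/495. 4-parameter IC50 → pKi (Cheng-Prusoff).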
# JAK2 = JAK2 (Homo sapiens (Human), UniProt O60674); assay: Biochemical JAK2 kinase assay (LanthaScreen)
# Method in brief: as §1
# JAK3 = JAK3 (Homo sapiens (Human), UniProt P52333); assay: Biochemical JAK3 kinase assay (LanthaScreen); details: for JAK3 (pKi)-JAK1 (pKi): selectivity JAK3 over JAK1, difference of pKi
# Method in brief: as §1
# Tyk2 = Tyk2 (Homo sapiens (Human), UniProt P29597); assay: Biochemical Tyk2 kinase assay (LanthaScreen)
# Method in brief: as §1
# [1] = tested on: IL-2 stimulated STAT5 phosphorylation in Tall-1 human T cell line (JAK3); assay: Cellular JAK3 potency assay: inhibition of IL-2 stimulated pSTAT5 in Tall-1 T cells; type: cell-based; details: IL-2 stimulated pSTAT5, Tall-1 T cells
# Method in brief: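 AlphaLISA SureFire Ultra measures STAT5 Tyr694/699 phosphorylation in lysed Tall-1 human T cells. Cells were exposed to compound for 1 h at 37 °C before a 30 min IL-2 challenge (300 ng/ml final). Values are pIC50 means with standard deviation from signal-versus-concentration curves.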
# Caco-2 cell monolayers = assay: Caco-2 permeation assay; type: in vitro ADME; details: 5 μM, A-B direction, with Verapamil (25 μM)
# Method in brief: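 Passive A-to-B permeability with P-gp inhibited by verapamil (25 μM); compound at 5 μM, n=2. Both compartments sampled at t0 and t120 and quantified by LC-MS/MS, giving apparent permeability in cm/sec from flux, area and concentration.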
# [2] = Colon and plasma mouse pharmacokinetics; type: in vivo; details: mouse, colon tissue / plasma; male Balb/c mice, 10 mg/kg PO; ratio of the colon AUC to the plasma AUC
# Method in brief: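 Male Balb/c mice given 10 mg/kg PO in 1% HPMC + 0.1% Tween-80; plasma, colon tissue and colon contents taken at 0.5, 2 and 6 h, quantified by LC/MS/MS. Non-compartmental analysis on means of 2 animals/time point; colon:plasma ratio taken as colon AUC over plasma AUC.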
# Sequence of JAK1 (P23458 whole entry): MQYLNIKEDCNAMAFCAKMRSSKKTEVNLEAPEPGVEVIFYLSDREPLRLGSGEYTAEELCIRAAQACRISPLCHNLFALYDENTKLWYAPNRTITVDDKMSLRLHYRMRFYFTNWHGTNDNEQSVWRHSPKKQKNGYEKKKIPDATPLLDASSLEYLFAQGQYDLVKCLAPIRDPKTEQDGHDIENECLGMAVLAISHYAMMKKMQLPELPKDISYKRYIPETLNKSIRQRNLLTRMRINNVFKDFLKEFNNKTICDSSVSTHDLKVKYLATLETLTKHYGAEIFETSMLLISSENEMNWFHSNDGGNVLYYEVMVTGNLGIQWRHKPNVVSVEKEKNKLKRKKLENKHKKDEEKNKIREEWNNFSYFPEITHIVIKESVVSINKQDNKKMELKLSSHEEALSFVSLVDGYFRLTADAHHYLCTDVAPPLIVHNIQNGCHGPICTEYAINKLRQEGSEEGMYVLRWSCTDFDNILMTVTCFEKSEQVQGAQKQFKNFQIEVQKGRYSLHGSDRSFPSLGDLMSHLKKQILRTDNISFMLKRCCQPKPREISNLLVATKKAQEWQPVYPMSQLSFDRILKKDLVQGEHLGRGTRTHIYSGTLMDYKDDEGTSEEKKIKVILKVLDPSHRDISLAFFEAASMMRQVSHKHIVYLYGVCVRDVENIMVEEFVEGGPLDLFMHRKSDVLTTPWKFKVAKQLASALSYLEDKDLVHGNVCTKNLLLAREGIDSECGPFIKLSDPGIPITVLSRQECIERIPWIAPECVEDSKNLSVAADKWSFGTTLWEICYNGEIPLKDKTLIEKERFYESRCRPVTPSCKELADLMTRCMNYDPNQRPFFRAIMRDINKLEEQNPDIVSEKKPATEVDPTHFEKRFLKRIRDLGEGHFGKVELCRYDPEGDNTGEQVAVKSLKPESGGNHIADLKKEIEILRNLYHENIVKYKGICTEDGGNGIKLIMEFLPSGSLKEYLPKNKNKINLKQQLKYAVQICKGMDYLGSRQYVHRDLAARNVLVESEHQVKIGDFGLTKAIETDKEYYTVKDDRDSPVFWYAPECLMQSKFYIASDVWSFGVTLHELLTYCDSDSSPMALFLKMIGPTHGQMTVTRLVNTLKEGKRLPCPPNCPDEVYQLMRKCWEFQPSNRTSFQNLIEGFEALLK
# Sequence of JAK3 (P52333 whole entry): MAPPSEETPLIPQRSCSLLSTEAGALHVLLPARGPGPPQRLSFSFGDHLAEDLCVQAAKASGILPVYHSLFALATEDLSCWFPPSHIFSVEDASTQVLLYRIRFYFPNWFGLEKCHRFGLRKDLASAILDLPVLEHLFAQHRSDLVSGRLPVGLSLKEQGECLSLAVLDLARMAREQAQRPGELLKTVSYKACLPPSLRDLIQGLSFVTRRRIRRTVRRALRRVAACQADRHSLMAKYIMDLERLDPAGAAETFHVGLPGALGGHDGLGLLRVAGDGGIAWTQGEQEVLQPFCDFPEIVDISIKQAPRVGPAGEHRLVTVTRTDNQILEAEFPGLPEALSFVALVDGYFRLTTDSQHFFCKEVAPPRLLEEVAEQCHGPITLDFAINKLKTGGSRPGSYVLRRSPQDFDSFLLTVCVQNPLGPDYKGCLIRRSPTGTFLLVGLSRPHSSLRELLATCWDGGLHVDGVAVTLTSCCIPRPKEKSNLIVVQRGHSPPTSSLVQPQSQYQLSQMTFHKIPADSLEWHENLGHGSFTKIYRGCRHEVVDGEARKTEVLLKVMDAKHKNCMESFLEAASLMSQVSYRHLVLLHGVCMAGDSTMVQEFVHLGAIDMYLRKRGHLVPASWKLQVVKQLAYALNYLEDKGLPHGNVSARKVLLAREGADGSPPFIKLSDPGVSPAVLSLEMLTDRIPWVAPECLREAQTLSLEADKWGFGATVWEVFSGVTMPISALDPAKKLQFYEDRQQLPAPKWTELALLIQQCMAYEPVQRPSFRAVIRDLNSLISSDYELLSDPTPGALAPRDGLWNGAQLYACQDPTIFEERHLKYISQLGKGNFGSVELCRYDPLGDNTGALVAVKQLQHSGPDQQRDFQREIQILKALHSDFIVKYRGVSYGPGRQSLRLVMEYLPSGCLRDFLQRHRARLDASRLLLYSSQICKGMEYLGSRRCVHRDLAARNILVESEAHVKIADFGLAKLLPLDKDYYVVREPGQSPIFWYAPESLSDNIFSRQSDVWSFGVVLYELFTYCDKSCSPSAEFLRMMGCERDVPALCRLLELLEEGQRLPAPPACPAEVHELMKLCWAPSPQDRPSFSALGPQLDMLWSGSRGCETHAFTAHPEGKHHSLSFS
# Sequence of JAK2 (O60674 whole entry): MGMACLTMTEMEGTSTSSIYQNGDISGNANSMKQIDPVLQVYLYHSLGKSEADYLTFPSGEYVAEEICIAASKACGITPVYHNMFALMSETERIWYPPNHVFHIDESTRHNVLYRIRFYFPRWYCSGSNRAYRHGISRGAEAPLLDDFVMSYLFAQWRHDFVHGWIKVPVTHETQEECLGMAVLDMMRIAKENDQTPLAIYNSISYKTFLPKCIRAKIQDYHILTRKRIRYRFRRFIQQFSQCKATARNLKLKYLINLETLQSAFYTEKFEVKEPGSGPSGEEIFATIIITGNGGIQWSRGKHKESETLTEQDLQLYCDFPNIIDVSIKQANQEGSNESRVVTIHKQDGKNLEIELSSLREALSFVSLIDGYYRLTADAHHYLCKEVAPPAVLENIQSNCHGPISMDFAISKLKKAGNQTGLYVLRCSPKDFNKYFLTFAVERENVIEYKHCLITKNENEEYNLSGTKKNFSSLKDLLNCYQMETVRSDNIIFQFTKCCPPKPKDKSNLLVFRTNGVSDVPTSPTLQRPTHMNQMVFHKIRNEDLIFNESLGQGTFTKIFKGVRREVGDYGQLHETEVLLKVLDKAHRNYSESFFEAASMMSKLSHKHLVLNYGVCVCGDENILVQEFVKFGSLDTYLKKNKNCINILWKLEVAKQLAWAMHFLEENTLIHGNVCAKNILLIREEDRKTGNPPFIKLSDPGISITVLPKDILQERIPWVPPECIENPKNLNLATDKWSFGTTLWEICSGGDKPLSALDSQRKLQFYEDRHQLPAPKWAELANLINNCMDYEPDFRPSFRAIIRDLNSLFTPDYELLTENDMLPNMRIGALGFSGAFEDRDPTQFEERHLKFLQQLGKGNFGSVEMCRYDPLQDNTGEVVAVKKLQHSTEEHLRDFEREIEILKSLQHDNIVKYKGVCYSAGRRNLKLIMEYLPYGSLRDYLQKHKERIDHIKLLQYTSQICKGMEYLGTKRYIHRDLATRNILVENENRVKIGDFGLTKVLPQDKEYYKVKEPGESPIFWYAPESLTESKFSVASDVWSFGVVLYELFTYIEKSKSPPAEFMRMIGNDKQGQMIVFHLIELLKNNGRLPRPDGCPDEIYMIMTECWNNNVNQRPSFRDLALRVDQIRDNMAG
# Sequence of Tyk2 (P29597 whole entry): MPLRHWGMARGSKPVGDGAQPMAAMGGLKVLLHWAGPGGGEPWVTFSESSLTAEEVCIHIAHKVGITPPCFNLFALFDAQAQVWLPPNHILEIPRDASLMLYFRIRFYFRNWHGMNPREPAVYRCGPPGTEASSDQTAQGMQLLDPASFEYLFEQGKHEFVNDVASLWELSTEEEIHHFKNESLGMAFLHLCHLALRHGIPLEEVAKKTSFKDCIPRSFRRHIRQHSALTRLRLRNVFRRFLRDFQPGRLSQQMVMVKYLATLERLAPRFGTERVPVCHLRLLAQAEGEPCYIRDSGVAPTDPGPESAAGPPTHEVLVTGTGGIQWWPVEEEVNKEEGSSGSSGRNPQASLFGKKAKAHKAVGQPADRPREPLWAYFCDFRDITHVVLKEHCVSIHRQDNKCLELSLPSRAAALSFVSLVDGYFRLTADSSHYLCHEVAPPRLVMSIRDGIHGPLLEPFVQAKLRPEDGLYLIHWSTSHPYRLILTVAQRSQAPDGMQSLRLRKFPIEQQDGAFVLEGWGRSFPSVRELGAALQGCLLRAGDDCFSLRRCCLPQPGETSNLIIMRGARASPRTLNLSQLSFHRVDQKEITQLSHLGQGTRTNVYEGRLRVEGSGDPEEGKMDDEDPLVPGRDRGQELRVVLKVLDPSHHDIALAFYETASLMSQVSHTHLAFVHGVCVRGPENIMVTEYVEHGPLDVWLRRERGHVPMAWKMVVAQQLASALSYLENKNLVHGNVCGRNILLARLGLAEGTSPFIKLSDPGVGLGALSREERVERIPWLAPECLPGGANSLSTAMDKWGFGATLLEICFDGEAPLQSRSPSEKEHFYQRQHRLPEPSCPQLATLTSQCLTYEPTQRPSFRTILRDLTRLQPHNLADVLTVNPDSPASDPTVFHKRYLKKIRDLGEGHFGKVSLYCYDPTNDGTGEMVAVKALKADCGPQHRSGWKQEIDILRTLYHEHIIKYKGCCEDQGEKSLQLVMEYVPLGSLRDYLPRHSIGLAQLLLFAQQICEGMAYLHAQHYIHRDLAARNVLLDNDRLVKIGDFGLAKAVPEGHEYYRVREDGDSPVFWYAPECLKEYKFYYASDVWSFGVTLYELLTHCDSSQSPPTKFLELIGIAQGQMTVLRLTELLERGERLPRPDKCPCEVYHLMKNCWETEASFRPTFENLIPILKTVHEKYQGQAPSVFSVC
Compound,JAK 1 (pKi) (JAK1),JAK 2 (pKi) (JAK2),JAK 3 (pKi) (JAK3),JAK3 (pKi)-JAK1 (pKi) (JAK3),Tyk 2 (pKi) (Tyk2),Tall-1 (pIC50) [1],Caco Kp (Caco-2 cell monolayers),Kp [2]
C=CC(=O)N1CC(CCn2c(=O)ccc3cnc(Nc4cnn(CCOC(C)C)c4)nc32)C1 [Example 24],E (E represents a pKi value of 7 or below (Ki of 100 nM or above)),E (E represents a pKi value of 7 or below (Ki of 100 nM or above)),B (B represents pKi value between 9 and 10 (Ki between 1 nM and 0.1 nM)),A (A represents a value of 3 or above),E (E represents a pKi value of 7 or below (Ki of 100 nM or above)),B (B represents a pC50 value between 6.7 (included) and 7.5 (IC50 between 200 nM and 32 nM)),B (B represents a value between 5×10^−6 and 10×10^−6 cm/sec),> 100
C=CC(=O)N1CCN(CCn2c(=O)ccc3cnc(Nc4ccc(N5CCN(C(=O)CSC)CC5)cc4)nc32)CC1 [Example 150],E (E represents a pKi value of 7 or below (Ki of 100 nM or above)),E (E represents a pKi value of 7 or below (Ki of 100 nM or above)),A (A represents a pKi value≥10 (Ki≤0.1 nM)),A (A represents a value of 3 or above),E (E represents a pKi value of 7 or below (Ki of 100 nM or above)),B (B represents a pC50 value between 6.7 (included) and 7.5 (IC50 between 200 nM and 32 nM)),A (A represents a value below 5×10^−6 cm/sec),> 100
C=CC(=O)N1CC(CCn2c(=O)ccc3cnc(Nc4cccc(CN5CCN(C(=O)COC)CC5)c4)nc32)C1 [Example 112],E (E represents a pKi value of 7 or below (Ki of 100 nM or above)),E (E represents a pKi value of 7 or below (Ki of 100 nM or above)),A (A represents a pKi value≥10 (Ki≤0.1 nM)),A (A represents a value of 3 or above),E (E represents a pKi value of 7 or below (Ki of 100 nM or above)),B (B represents a pC50 value between 6.7 (included) and 7.5 (IC50 between 200 nM and 32 nM)),A (A represents a value below 5×10^−6 cm/sec),> 100
C=CC(=O)N1CC(CCn2c(=O)ccc3cnc(Nc4ccc(N(CC)CC)cc4)nc32)C1 [Example 88],E (E represents a pKi value of 7 or below (Ki of 100 nM or above)),E (E represents a pKi value of 7 or below (Ki of 100 nM or above)),A (A represents a pKi value≥10 (Ki≤0.1 nM)),A (A represents a value of 3 or above),E (E represents a pKi value of 7 or below (Ki of 100 nM or above)),B (B represents a pC50 value between 6.7 (included) and 7.5 (IC50 between 200 nM and 32 nM)),D (D represents a value over 30×10^−6 cm/sec),> 14
C=CC(=O)N1CC(CCn2c(=O)ccc3cnc(Nc4cccc(N5CCN(C(=O)CSC)CC5)c4)nc32)C1 [Example 107],E (E represents a pKi value of 7 or below (Ki of 100 nM or above)),E (E represents a pKi value of 7 or below (Ki of 100 nM or above)),B (B represents pKi value between 9 and 10 (Ki between 1 nM and 0.1 nM)),A (A represents a value of 3 or above),E (E represents a pKi value of 7 or below (Ki of 100 nM or above)),B (B represents a pC50 value between 6.7 (included) and 7.5 (IC50 between 200 nM and 32 nM)),A (A represents a value below 5×10^−6 cm/sec),> 50
C=CC(=O)N1CCN(CCn2c(=O)ccc3cnc(Nc4ccc(N5CCSCC5)cc4)nc32)CC1 [Example 38],E (E represents a pKi value of 7 or below (Ki of 100 nM or above)),E (E represents a pKi value of 7 or below (Ki of 100 nM or above)),B (B represents pKi value between 9 and 10 (Ki between 1 nM and 0.1 nM)),A (A represents a value of 3 or above),E (E represents a pKi value of 7 or below (Ki of 100 nM or above)),B (B represents a pC50 value between 6.7 (included) and 7.5 (IC50 between 200 nM and 32 nM)),C (C represents a value between 10×10^−6 and 30×10^−6 cm/sec),> 1000
C=CC(=O)N1CCN(CCn2c(=O)ccc3cnc(Nc4ccc(N5CCN(C(C)=O)CC5)cc4)nc32)[C@@H](C)C1 [Example 155],E (E represents a pKi value of 7 or below (Ki of 100 nM or above)),E (E represents a pKi value of 7 or below (Ki of 100 nM or above)),B (B represents pKi value between 9 and 10 (Ki between 1 nM and 0.1 nM)),A (A represents a value of 3 or above),E (E represents a pKi value of 7 or below (Ki of 100 nM or above)),B (B represents a pC50 value between 6.7 (included) and 7.5 (IC50 between 200 nM and 32 nM)),A (A represents a value below 5×10^−6 cm/sec),> 1000
C=CC(=O)N1CC(CCn2c(=O)ccc3cnc(Nc4ccc(N5CCN(S(=O)(=O)CCOC)CC5)cc4)nc32)C1 [Example 76],E (E represents a pKi value of 7 or below (Ki of 100 nM or above)),E (E represents a pKi value of 7 or below (Ki of 100 nM or above)),B (B represents pKi value between 9 and 10 (Ki between 1 nM and 0.1 nM)),A (A represents a value of 3 or above),E (E represents a pKi value of 7 or below (Ki of 100 nM or above)),B (B represents a pC50 value between 6.7 (included) and 7.5 (IC50 between 200 nM and 32 nM)),B (B represents a value between 5×10^−6 and 10×10^−6 cm/sec),> 14
